PMC6163054 (Chembiochem : a European journal of chemical biology, 2018)

Target: Fluc (firefly luciferase) (Photinus pyralis, UniProt P08659)
Assay: bioluminescence kinetics, luminometer, nonlinear regression
Format: biochemical
Settings: ATP, Mg2+, pH 7.6; text says low millimolar range

Sequence of Fluc (firefly luciferase) (P08659 whole entry): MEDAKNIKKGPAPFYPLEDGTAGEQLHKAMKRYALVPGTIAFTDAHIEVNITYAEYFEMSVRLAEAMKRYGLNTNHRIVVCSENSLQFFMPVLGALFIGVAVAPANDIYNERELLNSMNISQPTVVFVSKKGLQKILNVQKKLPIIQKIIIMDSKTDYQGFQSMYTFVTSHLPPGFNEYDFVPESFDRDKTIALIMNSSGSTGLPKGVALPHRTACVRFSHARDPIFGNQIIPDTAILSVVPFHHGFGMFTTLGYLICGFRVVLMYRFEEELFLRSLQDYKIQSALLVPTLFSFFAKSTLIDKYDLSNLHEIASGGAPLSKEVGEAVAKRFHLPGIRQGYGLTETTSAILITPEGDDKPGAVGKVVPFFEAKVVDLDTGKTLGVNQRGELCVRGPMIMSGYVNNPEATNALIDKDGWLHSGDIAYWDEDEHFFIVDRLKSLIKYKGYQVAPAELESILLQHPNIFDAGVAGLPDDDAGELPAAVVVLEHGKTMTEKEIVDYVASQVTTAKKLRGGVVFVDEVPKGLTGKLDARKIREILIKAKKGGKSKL

SMILES | apparent Km
O=C(O)[C@H]1CSC(c2nc3ccc(=O)[nH]c3s2)=N1 [compound 4, (S)-2-(Thiazolo[5,4-b]pyridin-5(4H)-one-2-yl)-4,5-dihydrothiazole-4-carboxylic acid] | The apparent Km values measured for both luciferins were in the low millimolar range
O=C(O)[C@H]1CSC(c2nc3c[nH]c(=O)cc3s2)=N1 [compound 3, (S)-2-(Thiazolo[4,5-c]pyridin-6(5H)-one-2-yl)-4,5-dihydrothiazole-4-carboxylic acid] | The apparent Km values measured for both luciferins were in the low millimolar range
